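How tested: cells in 96-well plates exposed to compound for 48 hours at five concentrations. GI50 is the concentration that inhibits growth by half.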 Active and inactive are the calls of the source. Cut-off read from the data, not from the text of the source: active = GI50 up to about 1.1 µM and inactive = higher.
Legend:
Experiment in all cases: NCI tumour cell line growth inhibition, 48 h
DLD-1 = test system: DLD-1
DMS-114 = test system: DMS-114
DMS-273 = test system: DMS-273
HOP-18 = test system: HOP-18
KM-20L2 = test system: KM-20L2
M19-MEL = test system: M19-MEL
RXF 631 = test system: RXF 631
SNB-78 = test system: SNB-78
XF498 = test system: XF498

SMILES | GI50 (DLD-1) | GI50 (DMS-114) | GI50 (DMS-273) | GI50 (HOP-18) | GI50 (KM-20L2) | GI50 (M19-MEL) | GI50 (RXF 631) | GI50 (SNB-78) | GI50 (XF498)
CCCOc1ccc(/C=C/c2cc(OC)c(OC)c(OC)c2)cc1 | 0.386 µM (active) | 0.347 µM (active) | 0.147 µM (active) | > 100 µM (inactive) | 0.2 µM (active) | 0.682 µM (active) | 2.03 µM (inactive) | 1.29 µM (inactive) | 0.56 µM (active)
c1ccc2c(c1)nnn2CNc1ccc(N2CCCCC2)cc1 | > 100 µM (inactive) | > 100 µM (inactive) | > 100 µM (inactive) | > 100 µM (inactive) | > 100 µM (inactive) | – | – | > 100 µM (inactive) | > 100 µM (inactive)
NCCCC(N/C=C1/N=C(c2ccccc2)OC1=O)C(=O)O (stereo unspecified) | 65.8 µM (inactive) | > 100 µM (inactive) | > 100 µM (inactive) | – | > 100 µM (inactive) | > 100 µM (inactive) | – | > 100 µM (inactive) | > 100 µM (inactive)
CCOC(=O)C(=O)Nc1ccc([N+](=O)[O-])cc1C#N | > 100 µM (inactive) | > 100 µM (inactive) | – | > 100 µM (inactive) | – | > 100 µM (inactive) | > 100 µM (inactive) | – | > 100 µM (inactive)
COC(=O)C1CC(C(=O)OC)c2nc3cc(C)ccc3nc21 (stereo unspecified) | > 100 µM (inactive) | > 100 µM (inactive) | > 100 µM (inactive) | 51.4 µM (inactive) | > 100 µM (inactive) | > 100 µM (inactive) | > 100 µM (inactive) | > 100 µM (inactive) | > 100 µM (inactive)
O=C(c1ccco1)N(C(=S)N1CCN(c2ccccc2)CC1)c1ccccc1 | > 100 µM (inactive) | > 100 µM (inactive) | > 100 µM (inactive) | > 100 µM (inactive) | > 100 µM (inactive) | > 100 µM (inactive) | – | > 100 µM (inactive) | –
COC(=O)C1=Cc2cc(OC)c(OC)cc2[C@H](c2ccc(OC)c(OC)c2)C1C(=O)OC (stereo partly specified) | – | > 100 µM (inactive) | > 100 µM (inactive) | – | > 100 µM (inactive) | > 100 µM (inactive) | – | > 100 µM (inactive) | > 100 µM (inactive)
COc1cc(C2(C)SCCCS2)cc(OC)c1OC | > 100 µM (inactive) | > 100 µM (inactive) | > 100 µM (inactive) | > 100 µM (inactive) | > 100 µM (inactive) | > 100 µM (inactive) | > 100 µM (inactive) | – | –
CC(=O)OCC1OC(n2c(=O)[nH]c(=O)c3nn[nH]c32)C(OC(C)=O)C(OC(C)=O)C1OC(C)=O (stereo unspecified) | > 100 µM (inactive) | > 100 µM (inactive) | > 100 µM (inactive) | 76.7 µM (inactive) | > 100 µM (inactive) | > 100 µM (inactive) | – | – | > 100 µM (inactive)
CN(C)NC(=O)/C(=C/c1ccc(Cl)cc1)NC(=O)c1ccccc1 | 44.9 µM (inactive) | – | 29.4 µM (inactive) | > 100 µM (inactive) | > 100 µM (inactive) | > 100 µM (inactive) | 55.3 µM (inactive) | – | > 100 µM (inactive)
CCOP(=O)(OCC)/C(C#N)=C\c1cccc2ccccc12 | – | – | – | – | > 100 µM (inactive) | > 100 µM (inactive) | – | 48.2 µM (inactive) | –
COc1cc2ccnc3c2c(c1OC)CC1CC(O)C(OC)CC31 (stereo unspecified) | 95.3 µM (inactive) | 44.5 µM (inactive) | 34 µM (inactive) | 21.8 µM (inactive) | 43.2 µM (inactive) | 96.2 µM (inactive) | – | > 100 µM (inactive) | 44.7 µM (inactive)
CC1(C)O/C(=C\c2ccccc2)C(=O)/C(=C/c2ccccc2)O1 | 42.3 µM (inactive) | 17.3 µM (inactive) | 42.6 µM (inactive) | > 100 µM (inactive) | – | 28.6 µM (inactive) | 33.8 µM (inactive) | 38.5 µM (inactive) | 18.5 µM (inactive)
CNC(=O)NCNC(=O)NC | > 100 µM (inactive) | > 100 µM (inactive) | > 100 µM (inactive) | > 100 µM (inactive) | > 100 µM (inactive) | > 100 µM (inactive) | > 100 µM (inactive) | > 100 µM (inactive) | –
Cc1nc(N)nc(N)c1CCCCc1ccc(N)cc1 | 6.43 µM (inactive) | – | – | – | 3.74 µM (inactive) | 8.55 µM (inactive) | – | 9.46 µM (inactive) | 11.4 µM (inactive)
Nc1nc(SCc2ccccc2[N+](=O)[O-])c2[nH]cnc2n1 | > 100 µM (inactive) | – | > 100 µM (inactive) | – | > 100 µM (inactive) | > 100 µM (inactive) | – | > 100 µM (inactive) | –
CCO[C@]12C[C@H](OC)[C@@]3(O)CC(C1[C@H]3OCc1ccccc1)C13C4C2[C@H](OC)C1[C@](COC)(CN4CC)[C@H](O)C[C@@H]3OC (stereo partly specified) | > 100 µM (inactive) | > 100 µM (inactive) | > 100 µM (inactive) | – | > 100 µM (inactive) | > 100 µM (inactive) | – | > 100 µM (inactive) | > 100 µM (inactive)
O=C1C(Br)=C(Br)C(=O)c2ccc(=O)ccc21 | 22.3 µM (inactive) | 20.4 µM (inactive) | 48 µM (inactive) | 24.2 µM (inactive) | > 100 µM (inactive) | 17.2 µM (inactive) | 18.7 µM (inactive) | 29.3 µM (inactive) | 24 µM (inactive)
O=C(O)C12C3CCC(C3)C1(C(=O)O)C1CCC2C1 (stereo unspecified) | 24.7 µM (inactive) | 33.9 µM (inactive) | > 100 µM (inactive) | > 100 µM (inactive) | > 100 µM (inactive) | 92.5 µM (inactive) | > 100 µM (inactive) | > 100 µM (inactive) | > 100 µM (inactive)
COC(=O)C(C(=O)C(=O)Nc1ccc(C)cc1C)c1nc2ccc([N+](=O)[O-])cc2nc1O (stereo unspecified) | > 100 µM (inactive) | 33.4 µM (inactive) | 97.7 µM (inactive) | > 100 µM (inactive) | > 100 µM (inactive) | > 100 µM (inactive) | > 100 µM (inactive) | > 100 µM (inactive) | > 100 µM (inactive)
O=C(/C=C/c1ccc(OCCSCCCCCCCCCCSCCOc2ccc(/C=C/C(=O)c3ccc(Cl)cc3)cc2)cc1)c1ccc(Cl)cc1 | > 100 µM (inactive) | > 100 µM (inactive) | > 100 µM (inactive) | > 100 µM (inactive) | > 100 µM (inactive) | > 100 µM (inactive) | > 66.1 µM (inactive) | 37.2 µM (inactive) | –
Oc1ccc(-c2n[nH]c(S)n2)cc1 | > 100 µM (inactive) | > 100 µM (inactive) | > 100 µM (inactive) | > 100 µM (inactive) | > 100 µM (inactive) | > 100 µM (inactive) | – | > 100 µM (inactive) | > 100 µM (inactive)
Cc1cccc(N2C(=O)/C(=C/c3ccc(N(CCC#N)CCC#N)cc3C)N=C2c2cc([N+](=O)[O-])ccc2Cl)c1 | > 100 µM (inactive) | 88.9 µM (inactive) | > 100 µM (inactive) | > 100 µM (inactive) | – | > 100 µM (inactive) | > 100 µM (inactive) | – | –
Cc1ccc2[nH]c3c4c5ccccc5nc-4c[nH]c3c2c1 | 15.5 µM (inactive) | 16.1 µM (inactive) | – | 14.9 µM (inactive) | 15.1 µM (inactive) | – | – | 17 µM (inactive) | 21.4 µM (inactive)
